Data as given in ChEMBL document CHEMBL1201862, “PubChem BioAssay data set” (2004).
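Results reflect a 48-hour exposure of cells in 96-well plates to compound at five concentrations. The concentration for 50% growth inhibition is given as GI50.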 Calls of active or inactive are those of the source. Rule as the data show it: active = GI50 up to about 1.1 µM and inactive = higher.

What was measured:
Assay in all cases: inhibition of tumour cell growth, NCI panel, 48 h
[1] = test system: 786-0
[2] = test system: A498
[3] = test system: COLO 205
[4] = test system: DU-145
[5] = test system: HCT-116
[6] = test system: HCT-15
[7] = test system: HL-60
[8] = test system: HOP-62
[9] = test system: Hs-578T
[10] = test system: LOX IMVI
[11] = test system: M14
[12] = test system: MCF7
[13] = test system: MOLT-4
[14] = test system: NCI-H226
[15] = test system: NCI-H460
[16] = test system: PC-3
[17] = test system: SF-295
[18] = test system: SK-MEL-28
[19] = test system: TK-10
[20] = test system: SK-MEL-2

SMILES	GI50 [1]	GI50 [2]	GI50 [3]	GI50 [4]	GI50 [5]	GI50 [6] [µM]	GI50 [7]	GI50 [8]	GI50 [9]	GI50 [10]	GI50 [11]	GI50 [12]	GI50 [13]	GI50 [14]	GI50 [15]	GI50 [16]	GI50 [17]	GI50 [18]	GI50 [19]	GI50 [20]
COc1ccc2c(c1)C1=NCCN(C)c3ccc([N+](=O)[O-])c(c31)N2	0.43 µM (active)	1.61 µM (inactive)	0.533 µM (active)	1.02 µM (active)	0.312 µM (active)	0.46	3.16 µM (inactive)	0.785 µM (active)	1.66 µM (inactive)	0.431 µM (active)	1 µM (active)	1.15 µM (inactive)	0.705 µM (active)	0.502 µM (active)	0.271 µM (active)	0.583 µM (active)	1.02 µM (active)	2.55 µM (inactive)	2.86 µM (inactive)	
CN(C)Cc1cc(C=O)cc(CN(C)C)c1O	> 100 µM (inactive)	> 100 µM (inactive)	> 100 µM (inactive)	> 100 µM (inactive)	> 100 µM (inactive)	> 100	> 100 µM (inactive)	> 100 µM (inactive)	> 100 µM (inactive)	> 100 µM (inactive)		> 100 µM (inactive)	> 100 µM (inactive)	> 100 µM (inactive)	> 100 µM (inactive)	> 100 µM (inactive)	> 100 µM (inactive)	> 100 µM (inactive)	> 100 µM (inactive)	
CCCNC(=O)CCC(C)[C@H]1CCC2C3C(C[C@H](OC(C)=O)[C@@]21C)[C@@]1(C)CCC2(C[C@H]1C[C@H]3OC(C)=O)OOC1(CCC(C)CC1)OO2 (some centres not stated)	16.2 µM (inactive)	22.2 µM (inactive)	14.8 µM (inactive)	9.31 µM (inactive)	32.1 µM (inactive)	35.3	13.1 µM (inactive)	1.72 µM (inactive)	31 µM (inactive)		26.4 µM (inactive)	34.7 µM (inactive)	37.7 µM (inactive)	55.3 µM (inactive)	23.5 µM (inactive)	19.8 µM (inactive)	26.7 µM (inactive)	89.7 µM (inactive)	28.7 µM (inactive)	19.5 µM (inactive)
O=C(O)CC(Cc1ccccc1)C(=O)O (configuration not stated)	76.2 µM (inactive)	> 100 µM (inactive)	> 100 µM (inactive)	> 100 µM (inactive)	> 100 µM (inactive)	> 100		> 100 µM (inactive)	50.5 µM (inactive)	> 100 µM (inactive)	> 100 µM (inactive)	> 100 µM (inactive)	> 100 µM (inactive)	50.4 µM (inactive)	> 100 µM (inactive)	> 100 µM (inactive)	> 100 µM (inactive)	> 100 µM (inactive)	> 100 µM (inactive)	> 100 µM (inactive)
CC(C)(C)OC(=O)CC(NC(=O)OC(C)(C)C)C(=O)N[C@@H]1CCCC[C@H]1C(=O)OCc1ccccc1 (some centres not stated)	70.6 µM (inactive)		19.3 µM (inactive)	32.5 µM (inactive)	17.5 µM (inactive)	14.8	24.7 µM (inactive)	27.8 µM (inactive)	15.7 µM (inactive)	29 µM (inactive)	36.1 µM (inactive)	26.9 µM (inactive)	17 µM (inactive)	26.4 µM (inactive)	29.6 µM (inactive)	21.4 µM (inactive)	24.7 µM (inactive)	> 100 µM (inactive)	17.8 µM (inactive)	32.3 µM (inactive)
COc1ccc(CC(C)NCC(O)c2ccc(O)c(NC=O)c2)cc1 (configuration not stated)	> 100 µM (inactive)	> 100 µM (inactive)	> 100 µM (inactive)	> 100 µM (inactive)	43.4 µM (inactive)	> 100		> 100 µM (inactive)	> 100 µM (inactive)	> 100 µM (inactive)	> 100 µM (inactive)	> 100 µM (inactive)	> 100 µM (inactive)	> 100 µM (inactive)	> 100 µM (inactive)	> 100 µM (inactive)	33.9 µM (inactive)	> 100 µM (inactive)	> 100 µM (inactive)	> 100 µM (inactive)
CCOC(=O)CC1Nc2ccccc2C12CCc1c([nH]c3ccccc13)C2C(=O)OCC (configuration not stated)	47.5 µM (inactive)	9.42 µM (inactive)	5.12 µM (inactive)	> 100 µM (inactive)	12.9 µM (inactive)	13.1	14.7 µM (inactive)	> 100 µM (inactive)	8.18 µM (inactive)	26.5 µM (inactive)	30.5 µM (inactive)	13.1 µM (inactive)	6.1 µM (inactive)		14.2 µM (inactive)	53.2 µM (inactive)	3.61 µM (inactive)	35.1 µM (inactive)	32.5 µM (inactive)	27 µM (inactive)
Oc1nnc(-c2ccc(F)cc2)cc1-c1ccccc1	45.7 µM (inactive)	64.4 µM (inactive)	> 100 µM (inactive)	57.5 µM (inactive)	> 100 µM (inactive)	> 100	> 100 µM (inactive)		48.3 µM (inactive)	> 100 µM (inactive)	> 100 µM (inactive)	71.4 µM (inactive)	> 100 µM (inactive)	> 100 µM (inactive)	89.7 µM (inactive)	91.4 µM (inactive)	40.4 µM (inactive)	83.9 µM (inactive)	71.4 µM (inactive)	80.7 µM (inactive)
CC(=O)N1N=C(c2c(O)ccc3ccccc23)CC1C(=O)c1ccco1 (configuration not stated)	30.8 µM (inactive)	41.5 µM (inactive)	24.7 µM (inactive)	47.4 µM (inactive)	20.4 µM (inactive)	37.9		29.8 µM (inactive)	34.5 µM (inactive)		22.4 µM (inactive)	14.5 µM (inactive)	13.2 µM (inactive)	77.1 µM (inactive)	34.5 µM (inactive)	23 µM (inactive)	35.2 µM (inactive)	30.9 µM (inactive)	60.3 µM (inactive)	16.6 µM (inactive)
CCOC(=O)c1nc2ccccc2nc1Oc1cc(OC)c(OC)c(OC)c1	38.1 µM (inactive)	> 100 µM (inactive)	> 100 µM (inactive)	> 100 µM (inactive)	> 100 µM (inactive)	> 100	> 100 µM (inactive)	31.4 µM (inactive)	27.1 µM (inactive)	> 100 µM (inactive)	> 100 µM (inactive)	> 100 µM (inactive)	> 100 µM (inactive)		> 100 µM (inactive)	> 100 µM (inactive)	45.2 µM (inactive)	> 100 µM (inactive)	51.2 µM (inactive)	90.2 µM (inactive)
O=C(Nc1nncs1)NS(=O)(=O)n1c(=S)sc2ccccc21	> 100 µM (inactive)	> 100 µM (inactive)	> 100 µM (inactive)	> 100 µM (inactive)	> 100 µM (inactive)	> 100	51.9 µM (inactive)	> 100 µM (inactive)	> 100 µM (inactive)	> 100 µM (inactive)	> 100 µM (inactive)	> 100 µM (inactive)	42.4 µM (inactive)		> 100 µM (inactive)	> 100 µM (inactive)	> 100 µM (inactive)	> 100 µM (inactive)	> 100 µM (inactive)	> 100 µM (inactive)
